# In patent publication US20250034094A1, “A FAST AND EFFICIENT PROCESS FOR THE PREPARATION OF N-RETINYLIDENE-N-RETINYLETHANOLAMINE (A2E)” (Purdue Research Foundation, priority 2021, published 2025):
# Assays:
# [1] = HPLC analysis, cited from earlier work
# [2] = tested on: ARPE19 cells; assay: Cell viability assay (AlamarBlue) of ARPE19 cells treated with A2E lots, with or without inhibitors; assay type: cell-based; details: RPE cells, 24 hours in the dark
# Procedure: ARPE19 cells from ATCC were plated at 80% confluency in 96-well plates and pre-treated for 1 hour with inhibitors (33 μM Necrostatin 7 (Cayman Chemicals): 2 mM N-acetyl-cysteine (NAC) (Sigma): 50 μg/ml phoroglucinol (Sigma)), after which the medium was supplemented with A2E/ATRD or vehicle (control) and cells were incubated in serum-free OptiMEM (Invitrogen) medium for an additional 23 hours at 37° C. To assess viability, 20 μL of 10× AlamarBlue® (Invitrogen) were added per well, and cells were incubated for an additional hour before reading the fluorescence in SpectraMax M5e (Molecular Devices, CA, USA) using 555 nm excitation/585 nm emission.
compound,measurement,setting,value
"CC(C=CC1=C(C)CCCC1(C)C)=CC=CC(C)=Cc1cc(C=CC=C(C)C=CC2=C(C)CCCC2(C)C)cc[n+]1CCO [A2E, N-retinylidene-N-retinylethanolamine]","stability in THF, CHCl3 or EtOH","[1]; solvents THF, CHCl3 or EtOH",not stable
same,stability in methanol and DMSO,[1]; solvents methanol and DMSO,stable
"CC(C=CC1=C(C)CCCC1(C)C)=CC=CC(C)=Cc1cc(C=CC=C(C)C=CC2=C(C)CCCC2(C)C)cc[n+]1CCO [A2E #1, N-retinylidene-N-retinylethanolamine]",protection from A2E-induced toxicity by antioxidants (NAC),[2]; pre-treated with 2 mM N-acetyl-cysteine,partially protected by antioxidants (NAC)
"CC(C=CC1=C(C)CCCC1(C)C)=CC=CC(C)=Cc1cc(C=CC=C(C)C=CC2=C(C)CCCC2(C)C)cc[n+]1CCO [A2E #3, N-retinylidene-N-retinylethanolamine]",neutralization of A2E toxicity by necroptosis inhibitor Nec7,[2]; pre-treated with 33 μM Necrostatin 7,"better neutralized with the necroptosis inhibitor, Nec7"
